Measured values taken from patent US20080234131A1, “Herbicidal Mixtures of Cinmethylin” (priority 2005, published 2008).

Test system: LOLMG
Assay: Pre-emergence herbicidal trial, tank-mix incorporated into the soil, damage rated 0-100% against untreated control plots
Assay type: in vivo, lolium multiflorum
Protocol: The mixtures according to the invention are applied pre-emergence as tank-mix which is incorporated into the soil. The herbicidal compounds of component A) and B) are applied in the formulation in which they are present as commercially available product. […] For comparison the synergistic effect is estimated as follows: The value E at which only an additive effect of the individual active ingredients is to be expected is calculated by the method of S. R. […] This is done using the formula […] where • X=Percentage of the herbicidal action of component A) at an application rate of a; • Y=Percentage of the herbicidal action of component B) at an application rate of b; • E=expected herbicidal action of component A)+B) at rates of application a+b (in %). If the value observed exceeds the value E calculated in accordance with Colby's formula, then synergism is present.

Cc1ccccc1CO[C@@H]1C[C@@]2(C(C)C)CC[C@]1(C)O2 [Cinmethylin, exo(+)-1-methyl-4-(1-methylethyl)-2-[(2-methylphenyl)methoxy]-7-oxabicyclo[2.2.1]heptane]
% control of LOLMG (Cinmethylin 200 g/ha solo): 58% | % control of LOLMG (Cinmethylin 400 g/ha solo): 67%

CCC(CC)Nc1c([N+](=O)[O-])cc(C)c(C)c1[N+](=O)[O-] [Pendimethalin]
% control of LOLMG (Pendimethalin 600 g/ha solo): 56%

CCCN(CCC)c1c([N+](=O)[O-])cc(C(F)(F)F)cc1[N+](=O)[O-] [Trifluralin]
% control of LOLMG (Trifluralin 500 g/ha solo): 59%
